From patent US10315994B2, “Photostable compounds, absorbing compounds and uses thereof” (Commonwealth Scientific and Industrial Research Organisation, priority 2015, dated 2019)

How the values were obtained:
Assay type in all cases: physicochemical
[1] = Photostability of thin films exposed to xenon arc lamp; conditions: for % λmax (% of original absorbance remaining): absorbance at λmax, irradiated vs unirradiated; for % λmax (% of original absorbance remaining) / % abs total (% of original absorbance remaining): xenon arc lamp 1 hour, thin film; for % abs total (% of original absorbance remaining): sum of absorbance 290-400 nm
Method: 1 mL of a 3% solution of the test compound (30 mg of test compound in 1 mL solvent) was prepared in a solvent mix made up of 50% EtOH and 25% capric/caprylic triglyceride and 25% C12-C15 alkyl benzoate. 50 μL of this solution (containing 1.5 mg of test compound) was added carefully to the centre of a glass microscope slide and the volatile components left to evaporate in the dark for at least 3 hours to give a liquid film. […] The irradiation was performed in a fume cupboard where the air flow was sufficient to keep sample T<30° C. One hour's exposure represented a calculated radiation dose (using meter) of approximately 100 MED.
In order to calculate the photostability of the test compounds, the exposed slides were placed in a beaker and rinsed with 2×5 mL EtOH, 1×5 mL MeOH. The combined washings were then added to a 100 mL volumetric flask and made up to 100 mL total volume with methanol. The UV absorbance was then measured in a 10 mm cuvette. The percent stability is measured as the ratio of absorbance at λmax for the irradiated sample compared to the unirradiated sample. As a further measure, a comparison of the sum of the absorbance in the 290-400 nm range was calculated.
The thin films are a good surrogate for testing the stability of a candidate in a sunscreen formulation as they use cosmetic emollients as solvent and are formed at cosmetically relevant concentrations.

[2] = UV/visible absorbance characteristics (λmax, λcrit, ε, E 1%,1 cm); conditions: for ε: in M-1 cm-1 (unit assumed)
[3] = Solubility in sunscreen formulation / 3% solution in EtOH:capric/caprylic triglyceride:C12-C15 alkyl benzoate; conditions: for Solubility in standard commercial sunscreen formulations: e.g. 3% solution in 2:1:1 EtOH:capric/caprylic triglyceride:C12-C15 alkyl benzoate
Method: In one embodiment, the compounds may provide for improved solubility or stability in standard compositions, including sunscreen compositions. […] Such solubility may be measured by generating, for example, a 3% solution of the relevant compound in 2:1:1 EtOH:capric/caprylic triglyceride:C12-C15 alkyl benzoate.
1 mL of a 3% solution of the test compound (30 mg of test compound in 1 mL solvent) was prepared in a solvent mix made up of 50% EtOH and 25% capric/caprylic triglyceride and 25% C12-C15 alkyl benzoate. 50 μL of this solution (containing 1.5 mg of test compound) was added carefully to the centre of a glass microscope slide and the volatile components left to evaporate in the dark for at least 3 hours to give a liquid film. The prepared films were then exposed for 1 hour to an Eimac 150 W xenon arc lamp filtered through Pyrex (15 Amp supply current, samples 19 cm from the lamp) previously allowed to warm up for 15 minutes prior to sample exposure. The irradiation was performed in a fume cupboard where the air flow was sufficient to keep sample T<30° C. One hour's exposure represented a calculated radiation dose (using meter) of approximately 100 MED.

## CC1(C)CCN(c2ccccc2)C=C1C(=O)C(F)(F)F [Compound 106]
[1]
  % λmax (% of original absorbance remaining): 97%
  % abs total (% of original absorbance remaining): 97%
[1]; exposure to the lamp for 1 h
  % decomposed after irradiation: less than 5%
[2]; Table 1
  E (1%, 1 cm): 1033
  λcrit: 357 nm
  λmax: 335 nm
  ε: 29040
[2]; unirradiated control, FIGS. 3-5
  Peak point of absorbance curve (figure legend): approximately 335 nm

## CN(CCCCCCN(C)c1ccc(C(=O)C2=CN(C(C)(C)C)CCC2(C)C)cc1)c1ccc(C(=O)C2=CN(C(C)(C)C)CCC2(C)C)cc1 [Compound 109]
[1]; exposure to the lamp for 1 h
  Photostability, % remaining after irradiation: 22%
[2]; Table 1
  λcrit: 364 nm

## CCCCC(CC)CN(c1ccc(C(=O)C2=CN(C(C)(C)C)CCC2(C)C)cc1)c1ccc(C(=O)C2=CN(C(C)(C)C)CCC2(C)C)cc1 (centres unmarked) [Compound 136]
[1]
  % λmax (% of original absorbance remaining): 49%
  % abs total (% of original absorbance remaining): 56%
[1]; exposure to the lamp for 1 h
  Photostability, % remaining after irradiation: 49%
[2]; Table 1
  λmax: ~340 nm

## CCCOC(=O)CCC(=O)C1=CN(c2ccc(N3C=C(C(=O)CCC(=O)OCCC)C(C)(C)CC3)cc2)CCC1(C)C [Compound 152]
[3]
  Solubility in standard commercial sunscreen formulations: readily soluble

## CCCCC(CC)COC(=O)CCC(=O)C1=CN(c2ccc(N3C=C(C(=O)CCC(=O)OCC(CC)CCCC)C(C)(C)CC3)cc2)CCC1(C)C (centres unmarked) [Compound 153]
[1]
  % λmax (% of original absorbance remaining): 52%
[3]
  Solubility in standard commercial sunscreen formulations: readily soluble

## CC(C)=CCCC(C)CC(=O)C1=CN(c2ccc(N3C=C(C(=O)CC(C)CCC=C(C)C)C(C)(C)CC3)cc2)CCC1(C)C (centres unmarked) [Compound 154]
[3]
  Solubility in standard commercial sunscreen formulations: readily soluble

## CC(C)=CCCC(C)CC(=O)C1=CN(c2ccc(N3C=C(C(=O)CC(C)CCC=C(C)C)C(C)(C)CC3)cc2)CCC1(C)C (centres unmarked) [Compound 155]
[3]
  Solubility in standard commercial sunscreen formulations: readily soluble

## CC1(C)CCN(c2ccc(N3C=C(C(=O)CCC(F)(F)F)C(C)(C)CC3)cc2)C=C1C(=O)CCC(F)(F)F [Compound 157]
[1]
  % λmax (% of original absorbance remaining): 54%
[3]
  Solubility in standard commercial sunscreen formulations: readily soluble

## CC1(C)CCN(c2cccc(N3C=C(C(=O)C(F)(F)C(F)(F)C(F)(F)F)C(C)(C)CC3)c2)C=C1C(=O)C(F)(F)C(F)(F)C(F)(F)F [Compound 159]
[1]; 1 h irradiation
  Photostability (% remains): 91%
[2]; Table 1
  E (1%, 1 cm): 875
  λcrit: 366 nm
  λmax: 348 nm
  ε: 60200
[2]; Table 4
  E (1%, 1 cm): 875
  ε: 60200

## CC1(C)CCN(c2cccc(N3C=C(C(=O)C(F)(F)F)C(C)(C)CC3)c2)C=C1C(=O)C(F)(F)F [Compound 160]
[1]; after 1.5 h irradiation
  Photostability (% remains): 99 (after 1.5 h, others = 1 h) %
[2]; Table 1
  E (1%, 1 cm): 1380
  λcrit: 364 nm
  λmax: 346 nm
  ε: 67344
[2]; Table 4
  E (1%, 1 cm): 1380
  ε: 67344

## CC1(C)CCN(C(C)(C)C)C=C1C(=O)C(F)(F)C(F)(F)C(F)(F)C(=O)C1=CN(C(C)(C)C)CCC1(C)C [Compound 168]
[2]; Table 6
  E (1%, 1 cm): 1177
  λcrit: 337 nm
  λmax: 317 nm
  ε: 63346
[3]; solvent mix of the photostability method
  Solubility for determination of photostability: not sufficiently soluble

## CC1(C)CCN(C(C)(C)C)C=C1C(=O)C(Cl)(Cl)Cl [Compound 169]
[1]
  Fate under irradiation: effectively destroyed
[1]; Table 6
  Photostability (%): 5%
[2]; Table 6
  E (1%, 1 cm): 497
  λcrit: 361 nm
  λmax: 334 nm
  ε: 16618

## CC1(C)CCN(C(C)(C)C)C=C1C(=O)C(Br)(Br)Br [Compound 170]
[1]
  Fate under irradiation: effectively destroyed
[1]; Table 6
  Photostability (%): 13%
[2]; Table 6
  E (1%, 1 cm): 321
  λcrit: 361 nm
  λmax: 330 nm
  ε: 14203

## CC1(C)CCN(C(C)(C)C)C=C1C(=O)C(Cl)(Cl)Cl [drawing 124]
[1]; Table 5
  Photostability (%): 5%
[2]; Table 5
  E (1%, 1 cm): 497
  λcrit: 361 nm
  λmax: 334 nm
  ε: 16618

## CC1(C)CCN(C(C)(C)C)C=C1C(=O)C(Br)(Br)Br [drawing 125]
[1]; Table 5
  Photostability (%): 13%
[2]; Table 5
  E (1%, 1 cm): 321
  λcrit: 361 nm
  λmax: 330 nm
  ε: 14203
